Reference: patent US7968606B2 (Takasago International Corporation, priority 2004, dated 2011)

System: Japanese women
Test: Contingent negative variation (CNV) amplitude measurement, method of Torii
Format: in vivo, human
Settings: used in perfume compositions in an amount of less than 0.5% by weight, preferably 0.01% to 0.4% by weight
Description: (CNV) according to the method of Torii [Proceedings of the 19th Japanese Symposium on Taste and Smell, 65 (1985)], which is also described in detail in U.S. Pat. No. 6,268,333.
The contingent negative variations are small variations in cerebral potential related to psychological processes, such as attention, waiting, anticipation etc. as well as being related to changes in the state of consciousness.
According to this method, a luminous signal is emitted approximately 2 seconds after the audible signal, and the subject must switch off the luminous signal by pressing on the button as soon as the luminous signal is recognised.
When carrying out these experiments, a sample to be tested (perfume composition) or a reference sample (with no smell) is placed around 10 centimeters from the nose of the subject taking part in these experiments in such a way as to ensure that the compound is recognised at all times via the said subject's respiration. […]
The contingent negative variations measured during an early period of time going from 400 msec to 1000 msec after the audible signal and the amplitude of these variations is expressed with respect to a reference sample to which a value of 100% is given. […]
The amplitude of the contingent negative variations was determined for each woman taking part in the test during the early period going from 400 msec to 1000 msec after the audible signal.

## COc1cc(OC)cc(OC)c1 [1,3,5-trimethoxybenzene]
  sedative effect by measurement of contingent negative variations: sedative effect
